Experimental data published in ChEMBL document CHEMBL1141593, “Acylpyrogallols as inhibitors of antiapoptotic Bcl-2 proteins” (J Med Chem, 2008).

What was measured:
MDA-MB-231 [1] = assay: Induction of apoptosis in human MDA-MB-231 2LMP cells assessed as cell death at 3 uM after 4 days by trypan blue exclusion assay; details: MDA-MB-231, 96 h
MDA-MB-231 [2] = assay: Induction of apoptosis in human MDA-MB-231 2LMP cells assessed as cell death at 0.3 uM after 4 days by trypan blue exclusion assay; details: MDA-MB-231, 96 h

**Q.** Which cell death at 3 µM (MDA-MB-231 [1]) does the source give for `O=C(c1ccc(Oc2ccccc2)cc1)c1cc(C(=O)c2nc3ccccc3s2)c(O)c(O)c1O` here?
**A.** The cell death at 3 µM was 86%.

**Q.** What about the cell death at 0.3 µM (MDA-MB-231 [2]) of the same molecule?
**A.** The cell death at 0.3 µM was 31%.
